Measurements published in ChEMBL document CHEMBL1201862, “PubChem BioAssay data set” (2004).
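Where inhibition never reached the appropriate level, the endpoint shown equals the highest concentration tested. Otherwise, values were interpolated linearly from a five-concentration, 48-hour dose response in 96-well plates. At the GI50, growth is halved.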 Calls of active or inactive are those of the source. No stated cut-off is given here; in the data, active = GI50 up to about 1.1 µM and inactive = higher.

What was measured:
Test in all cases: NCI anticancer screen, dose series, 48 h
UACC-257 = tested on: UACC-257
SK-MEL-28 = tested on: SK-MEL-28
NCI/ADR-RES = tested on: NCI/ADR-RES
HCC 2998 = tested on: HCC 2998
HCT-116 = tested on: HCT-116
EKVX = tested on: EKVX
HOP-62 = tested on: HOP-62
A549 = tested on: A549
UACC-62 = tested on: UACC-62
ACHN = tested on: ACHN
Malme-3M = tested on: Malme-3M
DU-145 = tested on: DU-145
T47D = tested on: T47D
MOLT-4 = tested on: MOLT-4
MDA-MB-231 = tested on: MDA-MB-231
MCF7 = tested on: MCF7
OVCAR-5 = tested on: OVCAR-5

With `CSc1nc(Cl)c(Br)c(Nc2cnc(O)nc2O)n1` the GI50 (UACC-257) was 19.2 µM (inactive), the GI50 (SK-MEL-28) was 29.5 µM (inactive) and the GI50 (NCI/ADR-RES) was 19.7 µM (inactive). The GI50 (HCC 2998) was 17.8 µM (inactive), the GI50 (HCT-116) was 14.6 µM (inactive) and the GI50 (EKVX) was 15.3 µM (inactive). For the same compound, the GI50 (HOP-62) was 16.9 µM (inactive), the GI50 (A549) was 19.2 µM (inactive) and the GI50 (UACC-62) was 15.2 µM (inactive). For the same compound, the GI50 (ACHN) was 18.7 µM (inactive), the GI50 (Malme-3M) was 20.7 µM (inactive) and the GI50 (DU-145) was 15.6 µM (inactive). The GI50 (T47D) was 13.8 µM (inactive), the GI50 (MOLT-4) was 13.4 µM (inactive) and the GI50 (MDA-MB-231) was 13.6 µM (inactive). The GI50 (MCF7) was 38 µM (inactive).

With `CCC1C(=O)OCc2c1cc1n(c2=O)Cc2cc3ccccc3nc2-1` (stereo not drawn) the GI50 (UACC-257) was 50.7 µM (inactive), the GI50 (SK-MEL-28) was 13.2 µM (inactive) and the GI50 (OVCAR-5) was 33.4 µM (inactive). For the same compound, the GI50 (NCI/ADR-RES) was 8.43 µM (inactive), the GI50 (HCC 2998) was 25.9 µM (inactive) and the GI50 (HCT-116) was 8.41 µM (inactive). For the same compound, the GI50 (EKVX) was 77.6 µM (inactive), the GI50 (HOP-62) was 2.08 µM (inactive) and the GI50 (A549) was 5.09 µM (inactive). For the same compound, the GI50 (UACC-62) was 3.72 µM (inactive), the GI50 (ACHN) was 3.28 µM (inactive) and the GI50 (Malme-3M) was 60.3 µM (inactive). For the same compound, the GI50 (DU-145) was 2.98 µM (inactive), the GI50 (T47D) was 4.38 µM (inactive) and the GI50 (MOLT-4) was 0.733 µM (active). For the same compound, the GI50 (MDA-MB-231) was > 100 µM (inactive) and the GI50 (MCF7) was 1.59 µM (inactive).

In the case of `N#CC(Cc1ccccc1)N(CCC1=CCCCC1)C(c1ccccc1)c1ccccc1` (stereo not drawn), the GI50 (UACC-257) is reported as 43 µM (inactive), the GI50 (SK-MEL-28) is reported as 77.3 µM (inactive) and the GI50 (OVCAR-5) is reported as 95.7 µM (inactive). For the same compound, the GI50 (NCI/ADR-RES) was > 100 µM (inactive), the GI50 (HCC 2998) was 32 µM (inactive) and the GI50 (HCT-116) was 15.8 µM (inactive). The GI50 (EKVX) was 35.7 µM (inactive), the GI50 (HOP-62) was > 100 µM (inactive) and the GI50 (A549) was 70.3 µM (inactive). For the same compound, the GI50 (UACC-62) was > 100 µM (inactive), the GI50 (ACHN) was > 100 µM (inactive) and the GI50 (Malme-3M) was > 100 µM (inactive). The GI50 (DU-145) was > 100 µM (inactive), the GI50 (T47D) was 42.3 µM (inactive) and the GI50 (MOLT-4) was 66.8 µM (inactive). For the same compound, the GI50 (MDA-MB-231) was > 100 µM (inactive) and the GI50 (MCF7) was 42.4 µM (inactive).

For `O=C(O)CCC(=O)OC1N=C(c2ccccc2Cl)c2cc([N+](=O)[O-])ccc2NC1=O` (stereo not drawn), the GI50 (UACC-257) was > 100 µM (inactive), the GI50 (SK-MEL-28) was 60.1 µM (inactive) and the GI50 (OVCAR-5) was > 100 µM (inactive). The GI50 (NCI/ADR-RES) was > 100 µM (inactive), the GI50 (HCC 2998) was > 100 µM (inactive) and the GI50 (HCT-116) was 20.5 µM (inactive). For the same compound, the GI50 (EKVX) was > 100 µM (inactive), the GI50 (HOP-62) was 70.6 µM (inactive) and the GI50 (A549) was > 100 µM (inactive). The GI50 (UACC-62) was > 100 µM (inactive), the GI50 (ACHN) was 57.8 µM (inactive) and the GI50 (Malme-3M) was > 100 µM (inactive). The GI50 (DU-145) was > 100 µM (inactive), the GI50 (T47D) was 81.3 µM (inactive) and the GI50 (MDA-MB-231) was > 100 µM (inactive). The GI50 (MCF7) was 33 µM (inactive).

`Cn1ccnc1SC(F)(F)c1nc2ccccc2o1` was tested, and the GI50 (UACC-257) was > 100 µM (inactive), the GI50 (SK-MEL-28) was > 100 µM (inactive) and the GI50 (OVCAR-5) was > 100 µM (inactive). The GI50 (NCI/ADR-RES) was > 100 µM (inactive), the GI50 (HCC 2998) was > 100 µM (inactive) and the GI50 (HCT-116) was > 100 µM (inactive). For the same compound, the GI50 (HOP-62) was > 100 µM (inactive), the GI50 (A549) was > 100 µM (inactive) and the GI50 (UACC-62) was > 100 µM (inactive). The GI50 (ACHN) was > 100 µM (inactive), the GI50 (Malme-3M) was > 100 µM (inactive) and the GI50 (DU-145) was > 100 µM (inactive). The GI50 (T47D) was > 100 µM (inactive), the GI50 (MOLT-4) was > 100 µM (inactive) and the GI50 (MDA-MB-231) was > 100 µM (inactive). The GI50 (MCF7) was > 100 µM (inactive).

`Cc1ccc(C(=O)Nc2ccc(CP(=O)(O)O)cc2)cc1NC(=O)c1cccc(NC(=O)Nc2cccc(C(=O)Nc3cc(C(=O)Nc4ccc(CP(=O)(O)O)cc4)ccc3C)c2)c1` was tested, and the GI50 (UACC-257) was > 100 µM (inactive), the GI50 (SK-MEL-28) was > 100 µM (inactive) and the GI50 (OVCAR-5) was > 100 µM (inactive). For the same compound, the GI50 (NCI/ADR-RES) was > 100 µM (inactive), the GI50 (HCC 2998) was > 100 µM (inactive) and the GI50 (HCT-116) was > 100 µM (inactive). For the same compound, the GI50 (EKVX) was > 100 µM (inactive), the GI50 (HOP-62) was > 100 µM (inactive) and the GI50 (A549) was > 100 µM (inactive). For the same compound, the GI50 (UACC-62) was > 100 µM (inactive), the GI50 (ACHN) was > 100 µM (inactive) and the GI50 (Malme-3M) was > 100 µM (inactive). For the same compound, the GI50 (DU-145) was > 100 µM (inactive), the GI50 (T47D) was > 100 µM (inactive) and the GI50 (MDA-MB-231) was > 100 µM (inactive). The GI50 (MCF7) was > 100 µM (inactive).
